Assay results taken from the NIST ThermoML archive (doi:10.1016/j.fluid.2017.09.008).
± gives the expanded uncertainty stated by the source. Blank lines part the entries; values can stand above or below the compound they belong to.

Experiment: excess molar enthalpy (molar enthalpy of mixing); xn = mol fraction of the nth substance listed
Settings: 298.15 K, 101 kPa, Liquid, DSC [Setaram C80]

excess molar enthalpy (x1 = 0.2003): -0.189 ± 0.00574 kcal/mol
excess molar enthalpy (x1 = 0.4097): -0.293 ± 0.00406 kcal/mol
excess molar enthalpy (x1 = 0.5861): -0.274 ± 0.00478 kcal/mol
excess molar enthalpy (x1 = 0.7875): -0.164 ± 0.00598 kcal/mol
SMILES: Cc1cccc(O)c1 [3-methylphenol] + CCO

SMILES: Cc1ccccc1O [2-methylphenol] + CCO
excess molar enthalpy (x1 = 0.1954): -0.266 ± 0.00932 kcal/mol
excess molar enthalpy (x1 = 0.4127): -0.387 ± 0.00837 kcal/mol
excess molar enthalpy (x1 = 0.6007): -0.395 ± 0.00884 kcal/mol
excess molar enthalpy (x1 = 0.8013): -0.226 ± 0.0112 kcal/mol

excess molar enthalpy (x1 = 0.0168): -0.00716 ± 0.00526 kcal/mol
excess molar enthalpy (x1 = 0.1988): -0.0907 ± 0.00406 kcal/mol
excess molar enthalpy (x1 = 0.3994): -0.131 ± 0.00263 kcal/mol
excess molar enthalpy (x1 = 0.608): -0.121 ± 0.00311 kcal/mol
excess molar enthalpy (x1 = 0.7783): -0.0568 ± 0.00454 kcal/mol
SMILES: COc1ccccc1O [2-methoxyphenol] + CCO
